This note sets out measurements from PMC3038857, “Using Nuclear Receptor Activity to Stratify Hepatocarcinogens” (PLoS ONE, 2011).

In data set [1] the test system is CYP1A1. Description: CLZD_CYP1A1: Change in expression of CYP1A1 (primary human hepatocytes). The format is cell-based. Particulars: 24 hr, scale not given, looks like -log10 of molar active concentration, 0 = no activity. An outline of the steps:
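Chemicals are tested in human hepatocyte primary cultures over 0.004-40 µM (5 concentrations) for 6, 24 or 48 hr, and concentration- and time-dependent transcript changes are read by quantitative nuclease protection assay.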

Data set [2] concerns the target T1, CAR (NR1I3) (Homo sapiens, UniProt Q14994).
T1 sequence (Q14994 1-352): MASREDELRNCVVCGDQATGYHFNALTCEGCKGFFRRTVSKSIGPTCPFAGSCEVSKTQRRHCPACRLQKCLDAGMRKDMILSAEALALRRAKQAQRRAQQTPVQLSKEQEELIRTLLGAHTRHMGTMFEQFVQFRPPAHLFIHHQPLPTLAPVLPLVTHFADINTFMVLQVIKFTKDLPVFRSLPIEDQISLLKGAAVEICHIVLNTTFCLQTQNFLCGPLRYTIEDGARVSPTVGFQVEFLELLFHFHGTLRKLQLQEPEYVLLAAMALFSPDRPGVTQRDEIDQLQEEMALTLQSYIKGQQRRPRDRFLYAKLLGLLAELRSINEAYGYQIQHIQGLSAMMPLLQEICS
As to the kind of experiment: ATG_PBREM_CIS: Factorial reporter gene assay (HepG2). As to conditions: HepG2; scale not given, looks like -log10 of molar active concentration; 0 = no activity. Also on record: endogenous in cells; host or cells: HepG2; scale not given here. The format is cell-based. An outline of the steps:
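Seven concentrations per chemical, three-fold dilutions down from the MTC, were tested in HepG2 hepatoma cells. Those cells carried a multiple reporter transcription unit library, read either as cis transcription-factor-site reporters or as a trans mammalian one-hybrid panel for nuclear receptors.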

In data set [3] the target is T2, ERa (ESR1) (Homo sapiens, UniProt P03372).
T2 construct: expressed in transfected cells; host or cells: HEK293
T2 sequence (P03372 whole entry): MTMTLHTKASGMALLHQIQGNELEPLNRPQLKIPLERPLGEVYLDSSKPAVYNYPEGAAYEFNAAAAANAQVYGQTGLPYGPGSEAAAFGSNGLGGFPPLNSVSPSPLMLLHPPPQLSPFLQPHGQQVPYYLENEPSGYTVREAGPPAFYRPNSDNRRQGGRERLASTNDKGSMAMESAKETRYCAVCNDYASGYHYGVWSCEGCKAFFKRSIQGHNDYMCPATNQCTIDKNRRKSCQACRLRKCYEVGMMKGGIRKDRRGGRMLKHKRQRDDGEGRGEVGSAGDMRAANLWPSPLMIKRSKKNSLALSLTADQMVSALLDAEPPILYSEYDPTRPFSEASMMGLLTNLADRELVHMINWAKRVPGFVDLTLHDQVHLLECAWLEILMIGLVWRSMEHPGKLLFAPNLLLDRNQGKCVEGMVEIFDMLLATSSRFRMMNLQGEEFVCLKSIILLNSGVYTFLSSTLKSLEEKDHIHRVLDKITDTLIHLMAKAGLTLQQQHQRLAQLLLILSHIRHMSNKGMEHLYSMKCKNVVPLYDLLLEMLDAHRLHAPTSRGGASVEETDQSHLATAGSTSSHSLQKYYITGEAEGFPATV
As to the kind of experiment: NCGC_ERalpha_Agonist: GAL4 BLAM Reporter gene assay: ERa. The format is cell-based. As to conditions: agonist mode; scale not given, looks like -log10 of molar active concentration; 0 = no activity. How it is done: (§1) These assays measure binding constants and enzyme inhibition values for nuclear receptors. The targets include [drawing 67] , [drawing 68] , [drawing 69] , [drawing 70] , [drawing 71] , [drawing 72] , [drawing 73] , [drawing 74] , [drawing 75] and [drawing 76] . Each of the nuclear receptor targets was measured in agonist mode. Assays were run at the NIH Chemical Genomics Center (Rockville, MD).
(§2) Cell-based HTS Assays: These assays measuring binding constants and enzyme inhibition values for nuclear receptors. The targets include AR, ER, FXR, LXR, PPARα, PPARδ, PPARγ, RXRα, RXRβ and PXR. Each of the nuclear receptor targets was measured in both agonist and antagonist mode, but the antagonist data is still undergoing analysis due to possible interference between cytotoxicity and assay activity, so antagonist mode data were not used in the present analysis. Assays were run at the NIH Chemical Genomics Center (Rockville, MD) as part of the Tox21 collaboration. […] The R^2 was required to be ≥0.5. Values where only the highest concentration exceeded 50% activity were excluded to eliminate weak or false positives. Detailed description of the methods, data and analysis methods for this dataset will be presented in a separate publication.

The subject of data set [4] is LXRa (NR1H2). Description: NCGC_LXR_Agonist: GAL4 BLAM Reporter gene assay: LXRa. In kind it is cell-based, human. As to conditions: agonist mode; scale not given, looks like -log10 of molar active concentration; 0 = no activity. How it is done: as §1, §2
For orientation: A reporter such as luciferase makes a cellular process visible.

Data set [5] concerns AR (androgen receptor). As to the kind of experiment: NVS_NR_hAR: Human AR 3H-Methyltrienolone (cell-free HTS). The format is binding. As to conditions: scale not given, looks like -log10 of molar active concentration, 0 = no activity. The source says:
(§3) These are a collection of biochemical assays measuring binding constants and enzyme inhibition values. Chemicals were initially screened at a single concentration in duplicate wells at a concentration of 10 [drawing 63] M for cytochrome P-450 assays and 25 [drawing 64] M for all others. […] These assays were run by Caliper Life Sciences (Hanover, MD) under contract to EPA. Short assay descriptions are available at: http://www.caliperls.com/products/contract-research/in-vitro/.
(§4) Cell-free HTS Assays: A collection of biochemical assays measuring binding constants and enzyme inhibition values. […] These assays were run by Caliper Life Sciences (Hanover, MD) under contract to EPA. Short assay descriptions are available at http://www.caliperls.com/products/contract-research/in-vitro/. Values for all endpoints were imported into GeneData Screener (Basel, Switzerland) and normalised to solvent controls from the same plate as the tested compounds and expressed as percent of neutral control. Concentration-response curves were fit in GeneData Screener (Basel, Switzerland) Condeseo module using the Hill equation and AC50 values were determined. […] Detailed description of the methods, data and analysis methods for this dataset are described in a separate publication.

Data set [6] deals with Human ER (ESR1) (Homo sapiens, UniProt P03372). As to the kind of experiment: NVS_NR_hER: Human ER 3H-Estradiol (cell-free HTS). In kind it is binding. Particulars: scale not given, looks like -log10 of molar active concentration, 0 = no activity.
Chain of Human ER (ESR1) (P03372 whole entry): as above
From the text: as §3, §4

Consider `COC(=O)c1ccccc1CS(=O)(=O)NC(=O)Nc1nc(OC)cc(OC)n1` [r33], for which, in data set [1], the CLZD_CYP1A1_24 was determined as 0. Further, the ATG_PBREM_CIS in data set [2] turned out to be 0. The compound also had an NCGC_ERalpha_Agonist in data set [3] of 0. Besides, the NCGC_LXR_Agonist in data set [4] is given as 0. In data set [5], this compound displayed an NVS_NR_hAR of 0. In data set [6], this compound yielded an NVS_NR_hER of 0.
Compound `CC(C)N1C(=O)c2ccccc2NS1(=O)=O` [r37] gave a CLZD_CYP1A1_24 in data set [1] of 0. The compound also yielded an NCGC_ERalpha_Agonist in data set [3] of 0. The same compound came in with an NCGC_LXR_Agonist in data set [4] of 0. The NVS_NR_hAR in data set [5] was found to be 0. Moreover, the NVS_NR_hER in data set [6] is 0.
For `COc1ccc(-c2ccccc2)cc1NNC(=O)OC(C)C` [r38], the CLZD_CYP1A1_24 in data set [1] is listed as 4.891. The ATG_PBREM_CIS in data set [2] worked out at 0. In data set [3], this compound showed an NCGC_ERalpha_Agonist of 0. In addition, the NCGC_LXR_Agonist in data set [4] is recorded as 0. Also, the NVS_NR_hAR in data set [5] was 0. This compound yielded an NVS_NR_hER in data set [6] of 0.
For the compound `Cc1c(COC(=O)C2C(/C=C(\Cl)C(F)(F)F)C2(C)C)cccc1-c1ccccc1` (centres unmarked) [r39], the CLZD_CYP1A1_24 in data set [1] came to 4.56. In data set [2], this compound registered an ATG_PBREM_CIS of 0. The NCGC_ERalpha_Agonist in data set [3] came to 0. In addition, the NCGC_LXR_Agonist in data set [4] worked out at 0. In data set [5], this compound yielded an NVS_NR_hAR of 0. In data set [6], the NVS_NR_hER is on record as 0.
With `CC(C)(c1ccc(O)cc1)c1ccc(O)cc1` [r40], the CLZD_CYP1A1_24 in data set [1] turned out to be 0. Besides, in data set [2], the ATG_PBREM_CIS was determined as 0. This compound also yielded an NCGC_ERalpha_Agonist in data set [3] of 5.764. Further, in data set [4], the NCGC_LXR_Agonist worked out at 0. Besides, the NVS_NR_hAR in data set [5] is 4.747. In data set [6], this compound registered an NVS_NR_hER of 6.151.
As to `OB(O)O` [r41], the ATG_PBREM_CIS in data set [2] is reported as 0. For the same compound, in data set [3], the NCGC_ERalpha_Agonist is 0. In addition, the NCGC_LXR_Agonist in data set [4] came out at 0. For the same compound, the NVS_NR_hAR in data set [5] is on record as 0. The NVS_NR_hER in data set [6] is reported as 0.
As to `O=C(Nc1ccccc1-c1ccc(Cl)cc1)c1cccnc1Cl` [r42], in data set [1], the CLZD_CYP1A1_24 was determined as 4.852. The compound also came in with an ATG_PBREM_CIS in data set [2] of 0. This compound yielded an NCGC_ERalpha_Agonist in data set [3] of 0. The NCGC_LXR_Agonist in data set [4] was found to be 0. Also, in data set [5], the NVS_NR_hAR was 0. In data set [6], this compound gave an NVS_NR_hER of 0.
`CCC(C)n1c(=O)[nH]c(C)c(Br)c1=O` (centres unmarked) [r43]: the CLZD_CYP1A1_24 in data set [1] is 4.897. In data set [2], this compound registered an ATG_PBREM_CIS of 0. In addition, the NCGC_ERalpha_Agonist in data set [3] amounted to 0. Besides, in data set [4], the NCGC_LXR_Agonist was determined as 0. The compound further had an NVS_NR_hAR in data set [5] of 0. The compound further displayed an NVS_NR_hER in data set [6] of 0.
Compound `N#Cc1cc(Br)c(O)c(Br)c1` [r44] showed a CLZD_CYP1A1_24 in data set [1] of 0. This compound also came in with an ATG_PBREM_CIS in data set [2] of 0. The NCGC_ERalpha_Agonist in data set [3] came out at 0. The same compound showed an NCGC_LXR_Agonist in data set [4] of 0. Also, in data set [5], the NVS_NR_hAR came to 0. Also, the NVS_NR_hER in data set [6] was 0.
On to `CC(C)N1C(=O)N(c2ccccc2)CS/C1=N\C(C)(C)C` [r45], for which the CLZD_CYP1A1_24 in data set [1] is 0. This compound showed an ATG_PBREM_CIS in data set [2] of 0. For the same compound, in data set [3], the NCGC_ERalpha_Agonist was found to be 0. For the same compound, the NCGC_LXR_Agonist in data set [4] was determined as 0. In data set [5], this compound returned an NVS_NR_hAR of 0. Also, the NVS_NR_hER in data set [6] is given as 0.
`CCCCOCN(C(=O)CCl)c1c(CC)cccc1CC` [r46] gave a CLZD_CYP1A1_24 in data set [1] of 5.141. In data set [2], this compound registered an ATG_PBREM_CIS of 0. Also, the NCGC_ERalpha_Agonist in data set [3] came to 0. In addition, the NCGC_LXR_Agonist in data set [4] is on record as 0. This compound registered an NVS_NR_hAR in data set [5] of 0. Besides, in data set [6], the NVS_NR_hER is given as 0.
Regarding `C=CCOC(=O)C(C)(C)OC(=O)c1cc(-n2c(=O)cc(C(F)(F)F)n(C)c2=O)ccc1Cl` [r47], in data set [2], the ATG_PBREM_CIS is recorded as 0. Further, in data set [3], the NCGC_ERalpha_Agonist came to 0. Further, in data set [4], the NCGC_LXR_Agonist is recorded as 0. For the same compound, the NVS_NR_hAR in data set [5] came out at 0. Also, the NVS_NR_hER in data set [6] is listed as 0.
In data set [1], `CCC(C)Nc1c([N+](=O)[O-])cc(C(C)(C)C)cc1[N+](=O)[O-]` (centres unmarked) [r48] came in with a CLZD_CYP1A1_24 of 0. For the same compound, the NCGC_ERalpha_Agonist in data set [3] is 0. Besides, in data set [4], the NCGC_LXR_Agonist stood at 0. In data set [5], this compound yielded an NVS_NR_hAR of 0. The same compound had an NVS_NR_hER in data set [6] of 0.
On to `CCSC(=O)N(CC(C)C)CC(C)C` [r49], for which, in data set [1], the CLZD_CYP1A1_24 is on record as 0. This compound also returned an ATG_PBREM_CIS in data set [2] of 0. Moreover, the NCGC_ERalpha_Agonist in data set [3] came to 0. This compound also yielded an NCGC_LXR_Agonist in data set [4] of 0. For the same compound, in data set [5], the NVS_NR_hAR is 0. The same compound displayed an NVS_NR_hER in data set [6] of 0.
